Assays:
HUVEC = experiment: Agonist-enhanced neutrophil adherence to HUVEC; format: cell-based, human; conditions: for Inhibition of TNF-α-enhanced neutrophil adhesion to HUVEC: 20 μmol/l, 1 hr pre-treatment, TNF 4 hr
Outline: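 HUVEC were pre-treated 60 min at 37° C. with fatty acids (20 μmol/l), stimulated with TNF (125 U/200 μl) for 4 hr, then co-incubated 30 min with neutrophils (5×10^5 cells/well). Adherence expressed as % of control, mean±SEM of three triplicate experiments.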

ICAM-1 = experiment: Adhesion molecule expression on HUVEC (ELISA); format: cell-based, human; conditions: for Suppression of TNF-α-induced ICAM-1 expression on HUVEC: 60 min pre-treatment
Procedure: (§1) FIG. 13 is a representation showing effect of MP3 (β-oxa-23:4n-6) and 20:4n-6 on time-related changes in TNF-α-induced E-selectin, ICAM-1 and VCAM-1 expression on HUVEC. HUVEC were pre-treated with 20 μmol/l β-oxa-23:4n-6 (closed triangles), 20 μmol/l 20:4n-6 (open squares), or DPC (control) for 60 min and then further incubated with TNF-α (125 U/200 μl medium) for up to 24 hr. The expression of E-selectin, ICAM-1 and VCAM-1 adhesion molecules was determined by ELISA. The results are expressed as % of control and represent the mean±SEM of three separate experiments each performed in triplicate. * p<0.05, **p<0.01, ***p<0.001, for significant differences between pre-treatment with fatty acid and corresponding control at a particular time point (one-way analysis of variance followed by the Dunnett test for multiple comparisons). Inset: The effect of β-oxa-23:4n-6 on TNF-α-induced expression of E-selectin mRNA in HUVEC. HUVEC were pre-incubated with β-oxa-23:4n-6 (20 μmol/l) or DPC (control) in 1 ml of medium at 37° C. for 60 min. After the addition of TNF-α, the cells were further incubated at 37° C. for 2 hr. E-selectin mRNA expression was then determined and the results expressed as relative %. Results are the mean±SEM of three separate experiments each performed in quadruplicate. *p<0.0001, for significant differences between pre-treatment with β-oxa-23:4n-6, and control (two-tailed Student's t-test for unpaired data).
(§2) HUVEC were stimulated with TNF, bacterial lipopolysaccharide (LPS) or PMA for 24 hr. Expression of E-selectin, ICAM-1 and VCAM-1 was determined by an enzyme-linked immunosorbent assay (ELISA) or as mRNA using a slot blot technique (Huang et al 1997 supra).

VCAM-1 = experiment: Adhesion molecule expression on HUVEC (ELISA); format: cell-based, human; conditions: for Suppression of TNF-α-induced VCAM-1 expression on HUVEC: 60 min pre-treatment
Procedure: as §1, §2

[1] = LPS-induced influx of neutrophils and mononuclear cells in the peritoneal cavity; format: in vivo, BALB/c mice; conditions: 40 mg/kg intravenously, 6 hr before LPS
Procedure: FIG. 14 is a representation showing (A) effect of MP3 on in vivo inflammatory response measured as delayed type hypersensitivity (DTH) to sheep erythrocytes and LPS-induced influx of neutrophils and mononuclear cells in the peritoneal cavity in BALB/c mice. In the DTH experiments mice were injected with sheep erythrocytes subcutaneously, challenged with the antigen in the hind foot pad 6 days later and the amount of foot pad swelling measured 48 hr later. One hour prior to challenge mice were given 10 mg/kg body weight of β-oxa fatty acid in 7% w/v, DMSO as vehicle intraperitoneally. […] The data, expressed as % of control, are presented as mean±SEM of 10 and 5 mice for DTH and peritoneal inflammation, respectively. […] The data, expressed as % of control, are presented as mean±SEM of ten mice per group and is representative of two experimental runs. […]
Effect of MP3 (β-oxa-23:4n-6) on the in vivo inflammatory response was measured as a delayed type hypersensitivity (DTH) reaction and LPS-induced influx of neutrophils and mononuclear cells in the peritoneal cavity in BALB/c mice. For DTH experiments, mice were injected subcutaneously with 100 μl of 10% hematocrit sheep erythrocytes, challenged with the antigen (25 μl of 40%) in the hind foot pad 6 days later and the degree of foot pad swelling measured 48 hr later (Ferrante et al, Clin. & Exp. Immunol. 38:70-76, 1979). […]

[2] = 20 μmol/l, listed as β-oxa-23:4n-6

CCCCC/C=C\C/C=C\C/C=C\C/C=C\CCCCOCC(=O)O [MP3, β-oxa-23:4n-6]
Inhibition of LPS- or PMA-induced neutrophil adhesion to HUVEC (HUVEC): inhibited the increase in neutrophil adhesion | Inhibition of TNF-α-enhanced neutrophil adhesion to HUVEC (HUVEC): greatest suppression | Inhibition of TNF-α-enhanced neutrophil adhesion to HUVEC (HUVEC; listed as β-oxa 23:4n-6): most active | Inhibition of TNF-α-enhanced neutrophil adhesion to HUVEC (HUVEC; listed as β-oxa-23:4n-6): inhibited their ability to be stimulated | Concentration with significant suppression of TNF-α-induced neutrophil adhesion (HUVEC; pre-treatment time of 1 hr): ≥ 5 µmol/L | Suppression of TNF-α-induced ICAM-1 expression on HUVEC (ICAM-1; 20 μmol/l): better than docosahexaenoic acid (22:6n-3) at suppressing | Suppression of TNF-α-induced ICAM-1 expression on HUVEC (ICAM-1; [2]): inhibited the expression | Time of cytokine treatment at maximum inhibition of ICAM-1 expression (ICAM-1; 20 μmol/l, TNF-α): 6 h | Inhibition of LPS and PMA-induced up-regulation of ICAM-1 (ICAM-1; HUVEC): inhibited LPS and PMA-induced, up-regulation | Suppression of TNF-α-induced VCAM-1 expression on HUVEC (VCAM-1; 20 μmol/l): better than docosahexaenoic acid (22:6n-3) at suppressing | Suppression of TNF-α-induced VCAM-1 expression on HUVEC (VCAM-1; [2]): inhibited the expression | Time of cytokine treatment at maximum inhibition of VCAM-1 expression (VCAM-1; 20 μmol/l, TNF-α): 12 h | Inhibition of LPS and PMA-induced up-regulation of VCAM-1 (VCAM-1; HUVEC): inhibited LPS and PMA-induced, up-regulation | LPS-induced mononuclear cell infiltrate (72 hr) [1]: inhibition of the mononuclear cell infiltrate after 72 hr | LPS-induced neutrophil influx (24 hr) [1]: inhibited the neutrophil influx

Source: patent US20090215895A1, “Therapeutic and carrier molecules” (PEPLIN BIOLIPIDS PTY LTD, priority 2004, published 2009)
